According to US5561042A, “Diamine platinum naphthalimide complexes as antitumor agents” (Cancer Therapy and Research Center, priority 1995, dated 1996):
Entries after “also recorded” stand apart in the source; their conditions may differ.

Assays:
[1] = system: Murine B16 melanoma cell line; experiment: In vitro growth inhibition (MTT), B16 melanoma; assay type: cell-based; settings: MTT, 3 days
From the text: (§1) P388 murine leukemic cell line was obtained from the DCT Tumor Repository (National Cancer Institute, Frederick Cancer Research and Development, Frederick Md. 21702). HT29 Human Colon Carcinoma cell line was obtained from the American Type Culture Collection (12301 Parklawn Drive, Rockville, Md. 20852). B16 Melanoma cell line was obtained from DuPont Merck Pharmaceutical Company (Glenolden, Pa. 19036). MCF-7 Human Breast Carcinoma cell line was a gift from Dr. K. Osborne (Department of Medicine, The University of Texas Health Science Center at San Antonio, San Antonio, Tex. 78284). All cell lines were incubated at 37° C. in a humidified atmosphere of 5% CO2 -95% air. Murine B16 melanoma cell line was grown in RPMI 1640 medium supplemented with 10% heat-inactivated fetal bovine serum, 2 mM L-glutamine, 50 units/ml penicillin, 50 μg/ml streptomycin, 25 μg/ml gentamycin, 0.75% sodium bicarbonate, 10 mM HEPES buffer (pH 7.4), and 0.06 mg/ml AntiPPLO. Murine P388 leukemic and the human HT-29 colon adenocarcinoma cell lines were maintained in RPMI 1640 medium supplemented with 10% heat-inactivated fetal bovine serum. MCF-7M human breast adenocarcinoma was maintained in IMEM medium supplemented with 5% non heat-inactivated fetal bovine serum and 1 nM insulin.
(§2) Exponentially growing cells (1-2×10^3 cells, unless specified otherwise) in 0.1 ml medium were seeded on day 0 in a 96-well microtiter plate. On day 1, 0.1 ml aliquots of medium containing graded concentrations of test compounds were added in duplicate to the cell plates. After incubation at 37° C. in a humidified incubator for 3 days (P388, B16) or 6 days (HT-29, MCF-7M), the plates were centrifuged briefly and 100 μl of the growth medium was removed. Cell cultures were incubated with 50 μl of 3-(4,5-dimethylthiazol-2-yl)-2,5-diphenyl-tetrazolium bromide [MTT, 1 mg/ml in Dulbecco's phosphate buffered saline (PBS)] for 4 hr at 37° C. The resulting purple formazan precipitate was solubilized with 200 μl of 0.04N HCl in isopropyl alcohol. Absorbance was monitored in a BioRad Model 3550 Microplate Reader at a test wavelength of 570 nm and a reference wavelength of 630 nm. The absorbance was transferred to a PC 486 computer. The IC50 values were determined by a computer program (EZ-ED50) that fit all of the data to the following four-parameterlogistic equation:
(§3) Y=((Am -Ao)/(1+(X/IC50)^n))+Ao
(§4) where Am is the absorbance of control cells, Ao is the absorbance of cells in the presence of highest agent concentration, Y is the observed absorbance, X is the agent concentration, IC50 is the concentration of agent that inhibits the cell growth by 50% of control cells (based on the absorbance) and n is the slope of the curve.

[2] = system: HT29 Human Colon Carcinoma cell line; experiment: In vitro growth inhibition (MTT), HT29 colon carcinoma; assay type: cell-based; settings: 6 days
From the text: as §1, §2, §3, §4

[3] = system: EcoRI and Taq1 digested SV40 DNA; experiment: DNA crosslinking, EcoRI/Taq I digested SV40 DNA, alkaline agarose gel; assay type: binding; settings: 0.5 and 1 μM, 37° C., 17 hours
Method: Isolated SV40 DNA (Gibco BRL) was digested with EcoRI (3 units/μg DNA) (Promega #R6011) at 37° C. for two hours, and concentrated through a spin column (Microcon 50, Amicon, Inc.). The EcoRI digested SV40 DNA was then digested with Taq I (3 units/μg DNA) (Promega #6151) at 65° C. for an additional 2 hours. After digestion, DNA was extracted once with phenol/chloroform/isoamyl alcohol (25:24:1), and once with chloroform/isoamyl alcohol (24:1). The digested DNA was then labelled on the 5' end with ^32 P using the DuPont/NEN T4 polynucleotide kinase 5' end labelling system and […]. Labelled DNA was loaded onto a pre-equilibrated Sephadex 25 spin purification column (Quick-spin, Boehringer-Mannheim Biochemicals) and eluted into 400 μl TE (20 mM Tris HCl, 1 mM EDTA). Eluted DNA was ethanol precipitated overnight at -20° C. and spun in an Eppendorf microcentrifuge for 1 hour at 4° C., 14,000 rpm.
Precipitated DNA was suspended in TE (20 mM Tris HCl, pH 8, 1 mM EDTA) at approximately 0.1 μg/μl and incubated at 37° C. for 17 hours in a 50 μl volume with 0, 0.5, 1.0, 1.5 or 2 μM compound 21. Following drug treatment, DNA was again ethanol precipitated, spun down, dried briefly and suspended in 20 μl water. […]

[4] = system: SV40 DNA (Form I, negatively supercoiled); experiment: SV40 DNA unwinding / mobility by agarose gel electrophoresis; assay type: binding; settings: for effect on SV40 DNA conformation (in words): agarose gel electrophoresis, 37° C.
From the text: The model used in this study, negatively supercoiled, closed circular, plasmid SV40 DNA (Form I), undergoes several stages of drug-induced unwinding that are monitored by agarose electrophoresis.
Central to the understanding of compound 21 action was the ability to assess whether the drug was bound irreversibly (presumably covalently) or reversibly. The system used to extract the reversibly bound drug went through several phases of development. The classic phenol/chloroform mixture cannot completely extract all of the drug. However, the phenol/chloroform mixture effectively extracts the drug in the presence of at least 0.1M NaCl.
Three different systems, A, B and D were used to probe the mode of interaction of compound 21 with DNA.
System A: Compound 21 and DNA in TE buffer (10 mM Tris-HCl, pH 7.5 and 1 mM EDTA) without phenol/chloroform.
System B: Compound 21 and DNA in TE buffer with 0.5M NaCl without phenol/chloroform extraction.
System D: Compound 21 and DNA in TE buffer with 0.5M NaCl followed by phenol/chloroform extraction.
In general, SV40 DNA (90% Form I, negatively supercoiled, and 10% Form II, nicked, Gibco BRL) was incubated with graded concentrations of compound 21 at 37° C. for the indicated time periods in the appropriate system. The isolated DNA was then separated by agarose gel electrophoresis (1% Seakem agarose in 1× TAE buffer) in TAE buffer with 80 volts for 2 hours. Gels were stained with ethidium bromide (0.5 μg/ml) for 15 minutes, washed and then recorded with polaroid film while being irradiated with a UV transilluminator (λ=254 nm).

In the case of “8-(3'-nitro-1',8'-naphthalimide)-3,6-diazaoctylamine dichloroplatinum(II) [Compound 21]”, the IC50 [1] is reported as 385 nM, the IC50 [2] is reported as 129 nM and the “formation of DNA cross links (in words)” value [3] is reported as “formation of higher molecular weight DNA, around 4.6 and 5.8 Kb; also recorded: cross-linked DNA of 4.6-5.8 Kb”. The “effect on SV40 DNA conformation (in words)” value [4] was “potent distortion of DNA conformation; also recorded: gradually converts the negatively supercoiled SV40 DNA (Form I) to relaxed Form I”, the “effect on SV40 DNA conformation (in words)” value ([4]; listed as compound 21) was “observed instantly; also recorded: without incubation, the effect of compound 21 on DNA can be completely reversed using System D; also recorded: more of the mobility shift is retained, with an actual increase in drug effect at the full 8 hours; also recorded: no change in DNA mobility shift is observed even under system D at 8 hours; also recorded: can be returned to normal mobility after treatment with thiourea; also recorded: reversal of compound 21 on SV40 DNA by removal of compound 21 with phenol/chloroform extraction in 0.5M NaCl; also recorded: no change in mobility after phenol/chloroform, 0.5M NaCl extraction” and the “decrease of the concentration at which form I and II comigrate” value ([4]; from time zero to 8 hours) was 2 fold. For the same substance, the “time to plateau of irreversible effect on DNA conformation” value ([4]; time course studies) was 6 to 8 h.
